{"source": "patent US10154684B2", "about": "“Hair regrowth and growth promoter and use thereof” (PHARMA FOODS INTERNATIONAL CO., LTD., priority 2014, dated 2018)", "test_system": "C57BL/6 (female) mice", "assay": "Assessment of hair growth-promoting effect on androgen-induced telogen in C57BL/6 mice", "type": "in vivo, mouse", "details": "DHT 2 mg/mL, 100 μL subcutaneously every other day, casein-containing feed, Day 14, vs no DHT", "method": "C57BL/6 (female) mice available from Charles River Laboratories Japan, Inc. were used for the test. The animals were randomly divided into test groups so that the mean body weight was approximately equal between groups. The mice were housed three per cage at room temperature (25° C.) under a 12-hour light-dark cycle.\nThe mice at six weeks old purchased from the vendor were preliminarily bred for one week for acclimation to the test environment. A commercially available hair removal cream was applied to the dorsal region of the mice at an age of seven weeks old to remove the hair.\nUntil the start of the test, the mice were fed with free access to a solid CRF-1 feed (Oriental Yeast Co., Ltd.) and tap water as drinking water.\nThe hair of the 7-week-old C57BL/6 mice was in the telogen phase of the hair cycle, but due to the stimulation of hair removal, the hair gradually entered into the anagen phase. This transition in the hair cycle was hampered by administration of an androgen after the hair removal. […] From two days after the hair removal, the mixed feeds indicated in Table 5 were given with free access thereto.\nOn the final observation day (Day 14 of administration), the mice in the test and control groups were anesthetized and fixed on a photography table, and the hair removal region was photographed."}
{"smiles": "C[C@]12CCC(=O)C[C@@H]1CC[C@@H]1[C@@H]2CC[C@]2(C)[C@@H](O)CC[C@@H]12", "note": "[DHT, dihydrotestosterone]", "values": [{"measurement": "Blackening of the dorsal skin after hair removal", "result": "inhibited"}]}
